Assay results published in US20110105496A1, “Methods For The Treatment Of Myosin Heavy Chain-Mediated Conditions Using 4,7-Dihydrothieno[2,3-B]Pyridine Compounds” (priority 2005, published 2011).
Where two headings read alike, the source gives them in different places.

System: alpha-MyHC
Test: alpha-MyHC cytoblot process in neonatal rat ventricular myocytes (NRVM)
Assay type: cell-based
Description: In vitro activity of each compound is measured using the alpha-MyHC cytoblot process. Briefly, neonatal rat ventricular myocytes (NRVM) at 120,000 cells/ml in HyQ DME/High modified culture media supplemented with 10% charcoal/dextran treated FBS, 0.1% Nutridoma-SP, 1:100 MEM non-essential amino acids, 1:50 MEM amino acids solution w/o L-Gln, 1 mM sodium pyruvate and 1:100 P/S/G, are plated on gelatin coated sterile 384-well plates (Costar 3712) at 6,000 cells per well. Cells are incubated overnight at 37° C. in 5% CO2 100% humidity. Following overnight growth the media is changed to HyQ DME/High modified culture media supplemented with 0.3% Nutridoma-SP, 1:100 MEM non-essential amino acids, 1:50 MEM amino acids solution w/o L-Gln, 1 mM sodium pyruvate and 1:100 P/S/G. Cells are then dosed with serial dilutions of each compound in DMSO. Each concentration in the dose range is dosed in quadruplicate. Dosing is done in such a way so that the final DMSO concentration was 0.44%. Compound dilutions are 3-fold with the final top concentration of 10 uM. […] Following dosing, the cells are incubated for 72 hours at 37° C. in 5% CO2 100% humidity and then processed with the cytoblot method. Briefly, cell media is aspirated and cell monolayers washed with PBS and fixed with 100% methanol for 30 minutes. Fixed cells are then blocked with PBS, 0.05% Tween-20, 1% BSA, for 1 hour. Following blocking, cells are incubated with primary alpha-MyHC-specific antibody antibody (1:30 dilution of BA-G5 hybridoma conditioned media, ATCC HB276) for 1 hour. Following incubation with the primary antibody, cells are washed with PBS, 0.05% Tween-20, 1% BSA and incubated with secondary antibody (1:1000 dilution, goat-anti-mouse HRP, Southern Biotech, 1031-05) for 1 hour. Following incubation with the secondary antibody, wells are washed and incubated in SuperSignal, West Dura HRP-luminescence substrate for 30 seconds under shaking at room temperature. Luminescence is measured using a Packard Fusion plate reader. […] RLU values are converted into per cent fraction of low control and dose responses are fitted to a sigmoidal 4-parameter equation (XLFit, IDBS) where the EC50 and Max Plateau values were extracted. […] Max Plateau is the […] maximum value determined by the dose response fit.

[1] = Table 2 (esters), NRVM, 72 hours, alpha-MyHC cytoblot
[2] = Table 2 (esters), NRVM, 72 hours, maximum of dose response fit
[3] = Table 3 (amides), NRVM, 72 hours, alpha-MyHC cytoblot
[4] = Table 3 (amides), NRVM, 72 hours, maximum of dose response fit
[5] = Table 1, NRVM, 72 hours, alpha-MyHC cytoblot, mean ± spread
[6] = Table 1, NRVM, 72 hours, maximum of dose response fit, low control = vehicle only

SMILES | Max Plateau [2] | EC50 [5] | Max Plateau [6] | also measured
CCC(=O)C1=C(CC)Nc2sc(C(=O)c3ccc(Cl)c(Cl)c3)c(N)c2C1c1ccccc1F (racemic) [Compound 39, 1-[3-amino-2-(3,4-dichloro-benzoyl)-6-ethyl-4-(2-fluoro-phenyl)-4,7-dihydro-thieno[2,3b]pyridin-5-yl]-propan-1-one] | – | – | – | EC50 (Rattus norvegicus, Ventricular myocyte, Table 1, NRVM, 72 hours, alpha-MyHC cytoblot, mean ± spread): 17.1 nM; Emax (Rattus norvegicus, Ventricular myocyte, Table 1, NRVM, 72 hours, maximum of dose response fit, low control = vehicle only, read-out: Max Plateau): 273 ± 37.3%
CCC1=C(C(=O)OC)C(c2ccnc(F)c2)c2c(sc(C(=O)c3cccc(Cl)c3)c2N)N1 (racemic) [Compound 175] | 289.91 per cent fraction of low control | – | – | EC50 [1]: 0.183 nM
COC(=O)C1=C(C2CC2)Nc2sc(C(=O)c3cccc(Cl)c3)c(N)c2C1c1ccnc(F)c1 (racemic) [Compound 176] | 218.25 per cent fraction of low control | – | – | EC50 [1]: 42.1 nM
COC(=O)C1=C(C(C)C)Nc2sc(C(=O)c3cccc(C#N)c3)c(N)c2C1c1ccccc1F (racemic) [Compound 177] | 162.75 per cent fraction of low control | – | – | EC50 [1]: 796 nM
CCC1=C(C(=O)OCCOC)C(c2ccccc2F)c2c(sc(C(=O)c3cccc(C#N)c3)c2N)N1 (racemic) [Compound 178] | 258.67 ± 45.31 per cent fraction of low control | – | – | –
CCC1=C(C(=O)OCCOC)C(c2ccnc(F)c2)c2c(sc(C(=O)c3cccc(C#N)c3)c2N)N1 (racemic) [Compound 192] | 237.07 ± 13.03 per cent fraction of low control | – | – | –
CCOC(=O)C1=C(CC)Nc2sc(C(=O)c3ccc(F)c(CC(=O)OC)c3)c(N)c2C1c1ccccc1 (racemic) [Compound 194] | 188.67 per cent fraction of low control | – | – | EC50 [1]: 247 nM
CCNC(=O)C1=C(C)Nc2sc(C(=O)c3ccc(Cl)c(Cl)c3)c(N)c2C1c1ccccc1 (racemic) [Compound 195] | – | – | – | EC50 [3]: 337000 nM; Max Plateau [4]: 126.67 ± 23.09 per cent fraction of low control
CCCCNC(=O)C1=C(C)Nc2sc(C(=O)c3ccc(Cl)c(Cl)c3)c(N)c2C1c1ccccc1 (racemic) [Compound 196] | – | – | – | EC50 [3]: 334000 nM; Max Plateau [4]: 121.93 ± 25.12 per cent fraction of low control
COCCOCN1C(C)=C(C(C)=O)C(c2ccccc2)c2c1sc(C(=O)c1ccccc1)c2N (racemic) [Compound 209] | – | – | – | EC50 (Table 5 (R^4 substituted), NRVM, 72 hours, alpha-MyHC cytoblot): 393 nM; Max Plateau (Table 5 (R^4 substituted), NRVM, 72 hours, maximum of dose response fit): 192.74 per cent fraction of low control
CC1=C(C(=O)OCCN)C(c2ccccc2)c2c(sc(C(=O)c3ccc(Cl)c(Cl)c3)c2N)N1 (racemic) [compound 213] | – | – | – | EC50: 326 nM; Max Plateau: 208.56 ± 23.45
CCC1=C(C(=O)OC(C)CC)C(c2ccccc2F)c2c(sc(C(=O)c3ccc(Cl)c(Cl)c3)c2N)N1 (single isomer, unassigned) [Compound 162] | 183.22 per cent fraction of low control | – | – | EC50 [1]: 197 nM
CCC1=C(C(=O)OC(C)CC)C(c2ccccc2F)c2c(sc(C(=O)c3ccc(Cl)c(Cl)c3)c2N)N1 (single isomer, unassigned) [Compound 163] | 224.85 per cent fraction of low control | – | – | EC50 [1]: 142 nM
CCC1=C(C(=O)OC(C)CC)C(c2ccccc2F)c2c(sc(C(=O)c3cccc(C#N)c3)c2N)N1 (single isomer, unassigned) [Compound 165] | 250.83 per cent fraction of low control | – | – | EC50 [1]: 12 nM
CCC1=C(C(=O)OC(C)CC)C(c2ccccc2F)c2c(sc(C(=O)c3cccc(C#N)c3)c2N)N1 (single isomer, unassigned) [Compound 166] | 219.07 per cent fraction of low control | – | – | EC50 [1]: 33.3 nM
CCC1=C(C(=O)OCCOC)C(c2ccccc2F)c2c(sc(C(=O)c3cccc(Cl)c3)c2N)N1 (single isomer, unassigned) [Compound 179] | 237.11 ± 19.59 per cent fraction of low control | – | – | –
CCC1=C(C(=O)OCCOC)C(c2ccnc(F)c2)c2c(sc(C(=O)c3cccc(Cl)c3)c2N)N1 (single isomer, unassigned) [Compound 183] | 284.35 ± 38.37 per cent fraction of low control | – | – | –
CCC1=C(C(=O)OCCOC)C(c2ccccc2F)c2c(sc(C(=O)c3cccc(Cl)c3)c2N)N1 (single isomer, unassigned) [Compound 187] | 162.93 ± 10.10 per cent fraction of low control | – | – | –

SMILES | Max Plateau [2] | EC50 [5] | Max Plateau [6] | also measured
CCC1=C(C(=O)OCCOC)C(c2ccnc(F)c2)c2c(sc(C(=O)c3cccc(Cl)c3)c2N)N1 (single isomer, unassigned) [Compound 191] | 263.67 ± 1.13 per cent fraction of low control | – | – | –
CC(=O)C1=C(C)Nc2sc(C(=O)c3ccc(Cl)c(Cl)c3)c(N)c2C1c1ccccc1 (centres unmarked) [Compound 2] | – | 177 nM | 207.74 ± 23.00 per cent fraction of low control | –
CC(=O)C1=C(C)Nc2sc(C(=O)c3ccccc3)c(N)c2C1c1ccccc1 (centres unmarked) [Compound 3] | – | 797 nM | 250.88 ± 32.62 per cent fraction of low control | –
CC(=O)C1=C(C)Nc2sc(C(=O)c3cccc([N+](=O)[O-])c3)c(N)c2C1c1ccccc1Cl (centres unmarked) [Compound 4, 1-[3-amino-4-(2-chloro-phenyl)-6-methyl-2-(3-nitro-benzoyl)-4,7dihydro-thieno[2,3-b]pyridin-5-yl]-ethanone] | – | – | 244.20 ± 37.25 per cent fraction of low control | –
CC(=O)C1=C(C)Nc2sc(C(=O)c3cccnc3)c(N)c2C1c1ccccc1 (centres unmarked) [Compound 5] | – | 2330 nM | 286.43 ± 42.04 per cent fraction of low control | –
CC(=O)C1=C(C)Nc2sc(C(=O)c3cccc(Br)c3)c(N)c2C1c1ccccc1 (centres unmarked) [Compound 6] | – | 48.9 nM | 289.34 ± 70.69 per cent fraction of low control | –
CC(=O)C1=C(C)Nc2sc(C(=O)c3ccc(C)c(C)c3)c(N)c2C1c1ccccc1 (centres unmarked) [Compound 8] | – | 797 nM | 172.29 ± 9.66 per cent fraction of low control | –
CC(=O)C1=C(C)Nc2sc(C(=O)c3cccc([N+](=O)[O-])c3)c(N)c2C1c1ccc(C(=O)O)cc1 (centres unmarked) [Compound 9] | – | – | 100.00 ± 0.00 per cent fraction of low control | –
CC(=O)C1=C(C)Nc2sc(C(=O)c3ccncc3)c(N)c2C1c1ccccc1 (centres unmarked) [Compound 10] | – | 2680 nM | 210.00 ± 36.06 per cent fraction of low control | –
CC(=O)C1=C(C)Nc2sc(C(=O)c3ccc(Cl)c(Cl)c3)c(N)c2C1c1ccccc1Cl (centres unmarked) [Compound 13] | – | 82.5 nM | – | –
COc1ccc(C2C(C(C)=O)=C(C)Nc3sc(C(=O)c4ccccc4)c(N)c32)cc1 (centres unmarked) [Compound 14] | – | 3030 nM | 182.73 ± 26.95 per cent fraction of low control | –
COc1cccc(C2C(C(C)=O)=C(C)Nc3sc(C(=O)c4ccccc4)c(N)c32)c1 (centres unmarked) [Compound 15] | – | – | 126.50 ± 24.27 per cent fraction of low control | –
CC(=O)C1=C(C)Nc2sc(C(=O)c3ccccn3)c(N)c2C1c1ccccc1 (centres unmarked) [Compound 16] | – | 4290 nM | 163.33 ± 32.15 per cent fraction of low control | –
COc1ccccc1C1C(C(C)=O)=C(C)Nc2sc(C(=O)c3ccccc3)c(N)c21 (centres unmarked) [Compound 18] | – | 876 nM | 215.25 ± 44.08 per cent fraction of low control | –
CC(=O)C1=C(C)Nc2sc(C(=O)c3ccccc3)c(N)c2C1c1ccncc1 (centres unmarked) [Compound 19] | – | 3390 nM | 260.00 ± 36.06 per cent fraction of low control | –
CC(=O)C1=C(C)Nc2sc(C(=O)c3ccccc3)c(N)c2C1c1cccnc1 (centres unmarked) [Compound 20] | – | – | 127.35 ± 23.71 per cent fraction of low control | –
CC(=O)C1=C(C)Nc2sc(C(=O)c3ccccc3)c(N)c2C1c1ccc(Cl)cc1 (centres unmarked) [Compound 21] | – | 583 nM | 193.20 ± 49.26 per cent fraction of low control | –
